Read-outs that look alike come from different tables or passages of the source.
Experiments:
M. incognita [1] = assay: In vitro 96-well nematode immobility bioassay, trial T1; assay type: in vivo; settings: 3 μl of 20 mg/ml to 50 μl, 24 hour, 25° C
Procedure: (§1) The pure sample of butyl paraben and hexyl paraben was used in an in vitro 96-well plastic cell-culture plate bioassay. 15-20 nematodes in a 50 μl water solution were exposed to 3 μl of a 20 mg/ml peak concentrate for a 24 hour period at 25° C. Once the incubation period was completed, results were recorded based on a visual grading of immobility of the juvenile nematodes (J2's) in each well treated with compounds; each treatment was tested in replicate of 4 wells. […] Three controls are included in each trial; 1 positive (1% Avid) & 2 negative (DMSO & water). Trials (T1) was carried out using M. incognita nematodes and trail (T2) was carried out using M. hapla nematodes, the samples were dissolved in 100% DMSO.

[2] = test system: Beet Armyworm (Spodoptera exigua); assay: 96-well diet overlay assay with 1st instar Beet Armyworm larvae; assay type: in vivo; settings: for mortality at 40 µg/disc: Spodoptera exigua
Procedure: The insecticidal activity of butyl paraben (MBI206-FP-F5H32) and hexyl paraben (MBI206-FP-F5H40) were tested in a laboratory assay using a 96-well diet overlay assay with 1st instar Beet Armyworm (Spodoptera exigua) larvae using microtiter plates with 200 ul of solid, artificial Beet Armyworm diet in each well. One hundred (100) microliters of each test sample (containing 40 ug of sample) is pipetted on the top of the diet (one sample in each well), and the sample is let dry under flowing air until the surface is dry. Each sample was tested in six replicates, and water and a commercial Dipel product are used as negative and positive controls, respectively. One first instar larvae of the test insect (Beet armyworm—Spodoptera exigua) was placed in each well, and the plate was covered with plastic cover with airholes. The plates with insects were incubated at 26° C. for 6 days with daily mortality evaluations.

[3] = test system: M. incognita and M. hapla; assay: In vitro 96-well nematode immobility bioassay, mean of trials T1 and T2; assay type: in vivo; settings: 3 μl of 20 mg/ml to 50 μl, 24 hour, 25° C
Procedure: as §1

M. hapla = assay: In vitro 96-well nematode immobility bioassay, trial T2; assay type: in vivo; settings: 3 μl of 20 mg/ml to 50 μl, 24 hour, 25° C
Procedure: as §1

radish plants = assay: Whole plant herbicidal bioassay on radish; assay type: in vivo; set-up: Control, Day-1 Reading, Replicate 1 / Control, Day-1 Reading, Replicate 2 / Control, Day-1 Reading, Replicate 3 / Control, Day-1 Reading, AVG / Control, Day-7 Reading, Replicate 1 / Control, Day-7 Reading, Replicate 2 / Control, Day-7 Reading, Replicate 3 / Control, Day-7 Reading, AVG: scale not given here; settings: 10 mg/ml; for Control, Day-1 Reading, AVG / Control, Day-1 Reading, Replicate 1 / Control, Day-1 Reading, Replicate 2 / Control, Day-1 Reading, Replicate 3 / Control, Day-7 Reading, AVG / Control, Day-7 Reading, Replicate 1 / Control, Day-7 Reading, Replicate 2 / Control, Day-7 Reading, Replicate 3: foliar spray
Procedure: Healthy radish plants with two to three true leaves were selected for testing. The radish plants are 13 days old at treatment. The plants are sorted so that all treatments are equivalent in foliage surface area and plant height. The pots are labeled with treatment number and repetition number. Three repetitions per treatment are tested.
Ten fractions of MBI-206 formulated product are tested. The fractions are at a concentration of 10 mg/ml. The crude extracts of the formulated product and broth are also tested. An untreated control (treated with deionized water) and a positive control (RoundUp Super Concentrate at a rate of 2.5 fluid ounces per gallon) are included in the test.
All products and treatments are well shaken prior to application. Treatments are applied using a nozzle from a 2-ounce spray bottle. Separate spray nozzles were used for each treatment. […] Two milliliters of each treatment are sprayed simultaneously over the three repetitions of each treatment so that each plant is treated with approximately 0.67 milliliters of treatment solution.
The plants are allowed to air dry and are then randomized in holding trays. Each tray is labeled with the experiment name and treatment date and placed on the laboratory greenhouse shelves. The laboratory greenhouse maintains a temperature of 70-80° F. and a relative humidity of 30-40%. Throughout the bioassay, plants are watered from below by filling the holding trays with an appropriate amount of water so that plant foliage remained dry.
Symptoms included foliage burning and plant stunting. The following rating scale, shown in Table 4 is used to quantify efficacy. Ratings are determined by observing the following factors relative to the plants of the untreated control: overall plant health, average plant height, and foliage health. Symptoms of affected plants may include discolored/spotted/burnt/bleached foliage, warped/twisted/curled leaves, side branching (due to damaged apical meristem), plant dieback, or death.
The pure compounds (butyl paraben [MBI206-FP-F5H32] and hexyl paraben [MBI206-FP-F5H40]) obtained from fraction 5 were tested at a concentration of 10 mg/ml. An untreated control (treated with deionized water), the formulation blank (at 3% v/v & 10% v/v), and a positive control (RoundUp Super Concentrate at a rate of 2.5 fluid ounces per gallon) are included in the test.

Lygus hesperus = assay: 12 well plate treated green beans bioassay, Lygus hesperus late 2nd/early 3rd instar; assay type: in vivo; settings: Lygus hesperus; green beans dipped in 0.25 mg/mL; scored at 24, 48 and 120 hours
Procedure: The insecticidal activity of the four compounds, templamide A, templamide B, FR901465 & FR901228 isolated from Burkholderia were tested in a laboratory assay using a 12 well plate with treated green beans bioassay system. The compound was dissolved in 100% ethanol to concentrations of […] and 500 μL of this sample was added to 3.5 mL of water to make a total volume of 4 mL containing 0.25 mg/mL concentration of the compound. Green beans were washed earlier in bleach solution and then sat in water to rinse. Beans were dried before using and then were cut with scissors to fit into wells of 12-well plate. With the help of forceps the beans were dunked into a 15 mL plastic falcon tube containing each treatment and then submerged in treatment for exactly one min. one bean part was put into each well and then individual late 2nd/early 3rd instar Lygus hesperus, were placed in wells with help of brush. Plate sealer was used to cover tray and hole poked into the plate sealer for aeration. The numbers of Lygus/well were counted and plates were placed on brench top. Larvae were scored at 24, 48 and 120 hours after application. […] The positive control used in this testing was Avid (Avemectin) at the rate of 13 μL/10 mL.

[4] = test system: Chlamydomonas reinhardtii; assay: Control of Chlamydomonas reinhardtii by purified compounds, fluorescence at 680 nm; assay type: cell-based; settings: 72 hours
Procedure: Purified compounds from Burkholderia sp. fermentation broth was tested for algaicidal activity against Chlamydomonas reinhardtii. An increasing volume of the purified compounds (20 mg/mL in ethanol) was added to a clear 48 well polystyrene plate with 750 micro liters of the specified algae growing. Each treatment was done in two replicates and the solvent used as a negative control. The plate was closed with a lid and incubated for 72 hours under constant light at room temperature. After 72 hours the fluorescence (at 680 nm) of the suspension in each well was measured using a SpectraMax M2 plate reader, and the reduction in fluorescence compared with the negative control was converted into percent control of algal growth. Each sample was visually compared to the negative control; a well that was visually clearer than the negative control was scored as active. […] Tests were run in two replicates and %. Control was calculated as a reduction of fluorescence at 680 nm compared with the negative control. Each sample was visually compared to the negative control; a well that was visually clearer than the negative control was scored as active.

[5] = test system: Free living nematodes (FLN); assay: In vitro 96-well nematode immobility bioassay of FR901228, trial T1; assay type: in vivo; settings: 3 μl of 20 mg/ml to 50 μl, 24 hour, 25 C
Procedure: (§2) The pure sample of FR 901228 was tested using an in vitro 96-well plastic cell-culture plate bioassay. 15-20 nematodes in a 50 μl water solution were exposed to 3 μl of a 20 mg/ml solution of FR 901228 for a 24 hour period at 25 C. Once the incubation period was completed, results were recorded based on a visual grading of immobility of the juvenile nematodes (J2's) in each well treated with compounds; each treatment was tested in replicate of 4 wells. Three controls are included in each trial; 1 positive (1% Avid) & 2 negative (DMSO & water). Trials (T1) was carried out using Free living nematodes (FLN) and trail (T2) was carried out using M. incognita nematodes, the samples were dissolved in 100% DMSO.

M. incognita [6] = assay: In vitro 96-well nematode immobility bioassay of FR901228, trial T2; assay type: in vivo; settings: 3 μl of 20 mg/ml to 50 μl, 24 hour, 25 C
Procedure: as §2

[7] = test system: milkweed bugs (Oncopeltus fasciatus); assay: Sucking contact bioassay on milkweed bugs; assay type: in vivo; settings: 1 μL of 1 mg/mL in ethanol onto abdomen of 4th instar; scored at 4 and 7 day
Procedure: The insecticidal activity of the pure compounds templamide B (MBI 206; MW 537), FR 901465 (MBI 206; MW 523) and FR901228 (MBI 206; MW 540) were tested in a laboratory assay using a sucking contact bioassay system. The compounds were dissolved in 100% ethanol to concentrations of 1 mg/mL. Individual 4th instar milkweed bugs, penultimate nymph, larvae were placed in 5C Rubbermaid container with 2 sunflower seeds in each tub and 1 water cup (water in contact cup with cotton wick) into each tub. A Hamilton Micropipette was used to apply 1 μL (1 drop) of compound onto abdomen of milkweed bugs (MWB) of each larvae. Tubs were place into the Rubbermaid container and cap with mesh lid. Eight larvae per sample were treated. The assay was incubated at 25° C., 12 h light/12 h dark. Larvae were scored at 4 and 7 day after application. […] Thus, FR 901465 provided a better (87.5%) control of milkweed bugs, than FR 901228 (MW 540) and templamide B (FIG. 4).

[8] = 72 h, read-out: Insecticidal bioassay data (mortality), Day 3
[9] = 96 h, read-out: Insecticidal bioassay data (mortality), Day 4
[10] = 5 μL of sample (20 mg/mL in ethanol) per 750 μL of algae
[11] = 5 μL of sample per 750 μL of algae
[12] = 11 μL of sample (20 mg/mL in ethanol) per 750 μL of algae
[13] = 11 μL of sample per 750 μL of algae
[14] = 22.5 μL of sample (20 mg/mL in ethanol) per 750 μL of algae
[15] = 22.5 μL of sample per 750 μL of algae, well visually clearer than negative control scored as active

Row | SMILES | % immobility (trial # T1) (M. incognita [1]) | immobility against M. incognita (M. incognita [1]) | mortality at 40 µg/disc [2, 8] | mortality at 40 µg/disc [2, 9] | Mean % immobility [3] | % immobility (trial # T2) (M. hapla) | Control, Day-1 Reading, AVG (radish plants) | Control, Day-1 Reading, Replicate 1 (radish plants) | Control, Day-1 Reading, Replicate 2 (radish plants) | Control, Day-1 Reading, Replicate 3 (radish plants) | Control, Day-7 Reading, AVG (radish plants) | Control, Day-7 Reading, Replicate 1 (radish plants) | Control, Day-7 Reading, Replicate 2 (radish plants) | Control, Day-7 Reading, Replicate 3 (radish plants) | mortality at 250 µg/mL (Lygus hesperus) | % Control [4, 10] | Visual [4, 11] | % Control [4, 12] | Visual [4, 13] | % Control [4, 14] | other results
1 | CCCCOC(=O)c1ccc(O)cc1 [Butyl paraben, butyl paraben] | 75% | 81.25% | 8.93% | 8.93% | 81.25% | 87.5% | 18.3 | 25 | 5 | 25 | 24.2 | 25 | 10 | 37.5 |  |  |  |  |  |  | mortality ([2]; 40 ug of sample per well, text summary of Table 7): 9%
2 | C/C=C1\NC(=O)[C@H]2CSSCC/C=C/[C@H](CC(=O)N[C@H](C(C)C)C(=O)N2)OC(=O)[C@H](C(C)C)NC1=O [FR901228] |  |  |  |  |  |  |  |  |  |  |  |  |  |  | 51.7% | 89.48% | Active | 99.36% | Active | 98.71% | Visual [4, 15]: Active; immobility [5]: 75%; immobility (M. incognita [6]): 75%
3 | CC(=O)OC(C)/C=C\C(=O)NC1CC(C)C(C/C=C(C)/C=C/C2OC(C)(O)C(O)C3(CO3)C2O)OC1C (centres unmarked) [FR901465] |  |  |  |  |  |  |  |  |  |  |  |  |  |  | 91.2% | −86.58% | Not Active | −33.58% | Not Active | −3.887% | control of milkweed bugs [7]: 87.5%; Visual [4, 15]: Not Active
4 | CCCCCCOC(=O)c1ccc(O)cc1 [Hexyl paraben, hexyl paraben] | 87.5% | 93.75% | 50% | 70.8% | 93.75% | 100% | 75.0 | 75 | 75 | 75 | 87.5 | 87.5 | 87.5 | 87.5 |  |  |  |  |  |  | herbicidal potency in words (radish plants; compared with butyl paraben): most potent herbicidal compound

Reference: patent US20140221207A1, “ISOLATED BACTERIAL STRAIN OF THE GENUS BURKHOLDERIA AND PESTICIDAL METABOLITES THEREFROM- FORMULATIONS AND USES” (MARRONE BIO INNOVATIONS, INC., priority 2011, published 2014)
